Like-named read-outs stand apart in the source and are kept apart here.
Assays:
[1] = Cytotoxicity in mock-infected MT-4 cells (MTT method); type: cell-based; details: human
Protocol: The activity of the test compounds against the replication of HIV-1 wt and mutant strains (N119, A17, EFV^R, AZT^R, MDR, SAQ^R) and HIV-2 wt in acutely infected cells was based on the inhibition of virus-induced cytopathogenicity in MT-4 and C8166 cells, respectively. Briefly, 50 μL of culture medium containing 1 × 10^4 cells was added to each well of flat-bottom microtitre trays containing 50 μL of culture medium with or without different serial concentrations of test compounds. Then, 20 μL of an HIV suspension (containing the appropriate amount of CCID50 required to cause complete cytopathogenicity on day 4, final multiplicity of infection [m.o.i.] 0.01) was added. After incubation at 37 °C, cell viability was determined using the […] (MTT) method ([Pauwels et al., 1988]). The cytotoxicity of the test compounds was evaluated in parallel with their antiviral activity through the viability of mock-infected, treated cells, as monitored by the MTT method and described elsewhere ([Morellet et al., 1994]).

[2] = microbe, parasite or virus in culture; type: cell-based, HIV-1; details: all tested strains (HIV-1 wt, mutants, HIV-2)
Protocol: (§1) HIV-1IIIB and HIV-2 CBL-20 strains were obtained from the supernatants of persistently infected H9/IIIB and CEM cells, respectively. HIV-1 and HIV-2 stock solutions had titres of 4.5 × 10^7 and 1.4 × 10^6 50% cell culture infectious doses (CCID50)/ml, respectively. […] The K103R + V179D + P225H mutant (EFVR) was derived from an IIIB strain passaged in MT-4 cells in the presence of Efavirenz (up to 2 μM). N119, A17 and EFV^R stock solutions had titres of 1.2 × 10^8, 2.1 × 10^7, and 4.0 × 10^7 CCID50/ml, respectively.
(§2) The activity of the test compounds against the replication of HIV-1 wt and mutant strains (N119, A17, EFV^R, AZT^R, MDR, SAQ^R) and HIV-2 wt in acutely infected cells was based on the inhibition of virus-induced cytopathogenicity in MT-4 and C8166 cells, respectively. Briefly, 50 μL of culture medium containing 1 × 10^4 cells was added to each well of flat-bottom microtitre trays containing 50 μL of culture medium with or without different serial concentrations of test compounds. Then, 20 μL of an HIV suspension (containing the appropriate amount of CCID50 required to cause complete cytopathogenicity on day 4, final multiplicity of infection [m.o.i.] 0.01) was added.

HIV-1 IIIB strain = assay: microbe, parasite or virus in culture; type: cell-based; details: for EC50: Human immunodeficiency virus 1, IIIB, MT4, read-out: EC50 HIV-1; for Selectivity Index (SI = CC50/EC50) HIV-1: IIIB strain, in round brackets
Protocol: as §1, §2

HIV-1 N119 (Y181C) = assay: Inhibition of virus-induced cytopathogenicity in MT-4 cells, NNRTI-resistant mutant N119; type: cell-based; details: for EC50: Human immunodeficiency virus 1, MT4, read-out: EC50 N119; for Selectivity Index (SI = CC50/EC50) N119: in round brackets
Protocol: as §1, §2

[3] = tested on: HIV-1 A17 (K103N + Y181C); assay: Inhibition of virus-induced cytopathogenicity in MT-4 cells, NNRTI-resistant mutant A17; type: cell-based; details: for EC50: Human immunodeficiency virus 1, MT4, read-out: EC50 A17
Protocol: as §1, §2

[4] = tested on: HIV-1 EFVR (K103R + V179D + P225H); assay: Inhibition of virus-induced cytopathogenicity in MT-4 cells, NNRTI-resistant mutant EFVR; type: cell-based; details: for EC50: Human immunodeficiency virus 1, MT4, read-out: EC50 EFVR; for Selectivity Index (SI = CC50/EC50) EFVR: in round brackets
Protocol: as §1, §2

[5] = tested on: HIV-1 AZTR (67N, 70R, 215F, 219Q); assay: Inhibition of virus-induced cytopathogenicity in MT-4 cells, NRTI-resistant mutant AZTR; type: cell-based; details: for EC50: Human immunodeficiency virus 1, MT4, read-out: EC50 AZTR; for Selectivity Index (SI = CC50/EC50) AZTR: in round brackets
Protocol: as §1, §2

[6] = tested on: HIV-1 MDR (74V, 41L, 106A, 215Y); assay: Inhibition of virus-induced cytopathogenicity in MT-4 cells, NRTI-resistant mutant MDR; type: cell-based; details: for EC50: Human immunodeficiency virus 1, MT4, read-out: EC50 MDR; for Selectivity Index (SI = CC50/EC50) MDR: in round brackets
Protocol: as §1, §2

[7] = tested on: HIV-1 SAQR (L10F, G48V, L90M); assay: Inhibition of virus-induced cytopathogenicity in MT-4 cells, PRI-resistant mutant SAQR; type: cell-based; details: for EC50: Human immunodeficiency virus 1, MT4, read-out: EC50 SAQR; for Selectivity Index (SI = CC50/EC50) SAQR: in round brackets
Protocol: as §1, §2

HIV-2 CBL-20 strain = assay: Inhibition of HIV-2-induced cytopathogenicity in C8166 cells (MTT); type: cell-based
Protocol: as §1, §2

[8] = biological target: T1, HIV-1 reverse transcriptase (Human immunodeficiency virus type 1 group M subtype B, UniProt P04585); assay: Reverse transcriptase enzyme assay; type: biochemical
T1 construct: recombinant HIV-1 reverse transcriptase

[9] = biological target: T2, HIV-1 recombinant integrase (rIN) (Human immunodeficiency virus type 1 group M subtype B, UniProt P04585); assay: Integrase (rIN) enzyme assays: 3'-processing and strand transfer; type: biochemical
T2 construct: HIV-1 recombinant integrase (rIN); made in house
Description: ^aCompound concentration (µM) required to reduce the amount of 3’-end-labeled duplex of 21/19mers substrates, in 3’-processing and strand-transfer reactions catalyzed by the recombinant HIV-1 integrase, by 50%. Data represent mean values for three independent determinations.

| SMILES | CC50 at 4 days [1] [µM] | EC50 (HIV-1 IIIB strain) [µM] | Selectivity Index (SI = CC50/EC50) HIV-1 (HIV-1 IIIB strain) | EC50 (HIV-1 N119 (Y181C)) [µM] | Selectivity Index (SI = CC50/EC50) N119 (HIV-1 N119 (Y181C)) | EC50 [3] [µM] | EC50 [4] [µM] | Selectivity Index (SI = CC50/EC50) EFVR [4] | EC50 [5] [µM] | Selectivity Index (SI = CC50/EC50) AZTR [5] | EC50 [6] [µM] | Selectivity Index (SI = CC50/EC50) MDR [6] | EC50 [7] [µM] | Selectivity Index (SI = CC50/EC50) SAQR [7] | further results |
| --- | --- | --- | --- | --- | --- | --- | --- | --- | --- | --- | --- | --- | --- | --- | --- |
| O=c1c2ccc(Cl)cc2sn1NS(=O)(=O)c1ccccc1Cl [Compound 19, 2-Chloro-N-(6-chloro-3-oxo-1,2-benzisothiazol-2(3H)-yl)benzenesulfonamide] | 60 ± 4 | 11 ± 3 | 5 | 14 ± 3 | 4 | ≥ 33 | 7 ± 2 | 8 | 14 ± 1 | 5 | 11 ± 2 | 5 | 21 ± 1 | 2 | Selectivity Index (SI) against all tested strains [2]: around 10; EC50 (HIV-2 CBL-20 strain; Human immunodeficiency virus 2, C8166, read-out: EC50 HIV-2): 12 ± 2 µM; Selectivity Index (SI = CC50/EC50) HIV-2 (HIV-2 CBL-20 strain; in round brackets): 5; IC50 [8]: > 30 µM; Inhibition of recombinant HIV-1 RT ([8]; at concentrations of 30 μM): none of the benzenesulfonamides were active; IC50 [9]: > 30 µM; Inhibition of recombinant HIV-1 IN ([9]; at concentrations of 30 μM): none of the benzenesulfonamides were active; IC50 ([9]; read-out: IC50 Strand-transfer, recombinant HIV-1 integrase): > 30 µM |
| O=c1c2ccccc2sn1N(S(=O)(=O)c1ccc([N+](=O)[O-])cc1)S(=O)(=O)c1ccc([N+](=O)[O-])cc1 [Compound 22, 4-Nitro-N-[(4-nitrophenyl)sulfonyl]-N-(3-oxo-1,2-benzisothiazol-2(3H)-yl)benzenesulfonamide] | – | 21 | > 4 | 20 | > 5 | 20 | 21 | > 4 | 24 | > 4 | 25 | > 4 | 23 | > 4 | CC50 at 4 days ([1]; MT-4, MTT method): > 100 µM; Selectivity Index (SI = CC50/EC50) A17 ([3]; in round brackets): > 5 |
| O=c1c2ccccc2sn1N(S(=O)(=O)c1ccc(F)cc1)S(=O)(=O)c1ccc(F)cc1 [Compound 23, 4-Fluoro-N-[(4-fluorolphenyl)sulfonyl]-N-(3-oxo-1,2-benzisothiazol-2(3H)-yl)benzenesulfonamide] | 36 ± 2.5 | 26 ± 2 | – | 23 ± 1 | – | 24 | 25 | – | 22 | – | 25 | – | 22 | – | – |
| O=c1c2ccccc2sn1N(S(=O)(=O)c1ccc(Cl)cc1)S(=O)(=O)c1ccc(Cl)cc1 [Compound 24, 4-Chloro-N-[(4-chlorophenyl)sulfonyl]-N-(3-oxo-1,2-benzisothiazol-2(3H)-yl)benzenesulfonamide] | > 100 | 71 ± 6 | – | 29 ± 1 | – | 56 | 65 | – | 71 | – | 64 | – | 63 | – | – |
| CC(C)(C)NC(=O)[C@@H]1C[C@@H]2CCCC[C@@H]2CN1C[C@@H](O)[C@H](Cc1ccccc1)NC(=O)[C@H](CC(N)=O)NC(=O)c1ccc2ccccc2n1 [SAQ, saquinavir, reference compound] | – | 0.01 ± 0.001 | – | 0.02 ± 0.001 | – | 0.01 ± 0.002 | 0.01 ± 0.005 | – | 0.01 ± 0.005 | – | 0.02 ± 0.007 | – | 0.5 ± 0.1 | – | CC50 ([1]; MT-4, MTT method): ≥ 20 µM |
